{"source": "ChEMBL document CHEMBL1201862", "about": "“PubChem BioAssay data set” (2004)", "key": {"[1]": {"target": "T1, Aryl hydrocarbon receptor (Homo sapiens, UniProt P35869)", "T1 sequence (P35869 whole entry)": "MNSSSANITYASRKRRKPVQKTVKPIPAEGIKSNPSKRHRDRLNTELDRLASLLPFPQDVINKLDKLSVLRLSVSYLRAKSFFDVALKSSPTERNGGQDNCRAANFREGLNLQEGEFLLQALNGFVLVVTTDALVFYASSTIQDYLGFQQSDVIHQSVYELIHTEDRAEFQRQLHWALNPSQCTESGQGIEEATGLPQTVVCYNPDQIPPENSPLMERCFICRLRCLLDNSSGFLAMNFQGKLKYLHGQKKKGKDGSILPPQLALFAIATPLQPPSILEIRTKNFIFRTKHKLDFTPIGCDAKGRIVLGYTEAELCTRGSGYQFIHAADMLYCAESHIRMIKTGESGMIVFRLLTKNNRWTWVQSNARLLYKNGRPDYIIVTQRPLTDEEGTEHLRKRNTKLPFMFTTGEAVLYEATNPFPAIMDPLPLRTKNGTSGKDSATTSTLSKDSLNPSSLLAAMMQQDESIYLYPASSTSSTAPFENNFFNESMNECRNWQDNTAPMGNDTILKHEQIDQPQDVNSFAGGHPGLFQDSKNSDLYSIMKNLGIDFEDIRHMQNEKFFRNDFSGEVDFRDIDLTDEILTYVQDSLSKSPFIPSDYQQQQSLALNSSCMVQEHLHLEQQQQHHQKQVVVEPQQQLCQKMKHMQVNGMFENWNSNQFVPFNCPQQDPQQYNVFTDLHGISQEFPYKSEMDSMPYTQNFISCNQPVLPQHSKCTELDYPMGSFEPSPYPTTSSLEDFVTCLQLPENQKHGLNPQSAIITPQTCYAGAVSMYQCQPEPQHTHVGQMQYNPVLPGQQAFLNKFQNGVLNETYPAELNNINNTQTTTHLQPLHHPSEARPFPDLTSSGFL", "conditions": "Potency"}, "[2]": {"target": "T2, Endoribonuclease toxin MazF (Escherichia coli K-12, UniProt P0AE70)", "T2 sequence (P0AE70 whole entry)": "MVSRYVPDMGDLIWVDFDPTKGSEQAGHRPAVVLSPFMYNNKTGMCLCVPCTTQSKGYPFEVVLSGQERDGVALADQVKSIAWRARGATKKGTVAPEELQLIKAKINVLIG", "assay": "activation of MazEF endoribonuclease cleavage – biochemical, fluorescence, single-stranded RNA substrate, uHTS hits, dose response (AID 588481)", "format": "functional"}, "[3]": {"target": "T2, Endoribonuclease toxin MazF", "assay": "substrate-only fluorescence increase artefacts – biochemical, single-stranded RNase substrate, counter-screen for MazEF activator project, dose response (AID 588502)", "format": "functional"}, "[4]": {"assay": "activation of miR-122 Renilla sensor silencing – cell-based, Huh7 psiCHECK-miR122, Renilla luciferase, cherry-picked, dose response (AID 651956);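 also: huh7 hepatoma cells stably carrying a psiCHECK-2 miR-122 sensor plasmid; renilla luciferase signal reporting endogenous miR-122 activity after 48 h compound exposure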", "format": "functional"}, "[5]": {"assay": "non-specific 3'UTR reporter inhibition in Clone20-Shn3RL – cell-based, Renilla luciferase, cherry-picked, counter-screen for Shn3 inhibitor project, dose response (AID 624133)", "format": "functional"}, "[6]": {"target": "Intestinal-type alkaline phosphatase (Homo sapiens, UniProt P09923)", "sequence (P09923 whole entry)": "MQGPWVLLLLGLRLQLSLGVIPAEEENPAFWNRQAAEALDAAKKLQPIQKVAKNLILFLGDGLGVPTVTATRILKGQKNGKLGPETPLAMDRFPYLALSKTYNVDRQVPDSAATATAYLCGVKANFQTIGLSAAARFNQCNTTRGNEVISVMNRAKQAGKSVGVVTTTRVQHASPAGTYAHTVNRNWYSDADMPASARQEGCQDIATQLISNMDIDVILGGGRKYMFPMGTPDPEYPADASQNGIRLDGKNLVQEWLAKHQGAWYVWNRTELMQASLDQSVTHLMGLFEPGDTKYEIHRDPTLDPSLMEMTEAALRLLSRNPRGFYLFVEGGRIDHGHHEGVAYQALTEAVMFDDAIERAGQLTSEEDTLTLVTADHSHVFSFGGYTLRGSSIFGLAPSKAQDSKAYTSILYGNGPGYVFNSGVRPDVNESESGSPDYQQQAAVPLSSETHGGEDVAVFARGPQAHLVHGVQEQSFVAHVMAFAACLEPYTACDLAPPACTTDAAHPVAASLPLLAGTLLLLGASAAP", "assay": "inhibition of human intestinal alkaline phosphatase – biochemical, dose response (AID 488876)", "format": "functional"}, "[7]": {"target": "T3, Alkaline phosphatase, tissue-nonspecific isozyme (Homo sapiens, UniProt P05186)", "T3 sequence (P05186 whole entry)": "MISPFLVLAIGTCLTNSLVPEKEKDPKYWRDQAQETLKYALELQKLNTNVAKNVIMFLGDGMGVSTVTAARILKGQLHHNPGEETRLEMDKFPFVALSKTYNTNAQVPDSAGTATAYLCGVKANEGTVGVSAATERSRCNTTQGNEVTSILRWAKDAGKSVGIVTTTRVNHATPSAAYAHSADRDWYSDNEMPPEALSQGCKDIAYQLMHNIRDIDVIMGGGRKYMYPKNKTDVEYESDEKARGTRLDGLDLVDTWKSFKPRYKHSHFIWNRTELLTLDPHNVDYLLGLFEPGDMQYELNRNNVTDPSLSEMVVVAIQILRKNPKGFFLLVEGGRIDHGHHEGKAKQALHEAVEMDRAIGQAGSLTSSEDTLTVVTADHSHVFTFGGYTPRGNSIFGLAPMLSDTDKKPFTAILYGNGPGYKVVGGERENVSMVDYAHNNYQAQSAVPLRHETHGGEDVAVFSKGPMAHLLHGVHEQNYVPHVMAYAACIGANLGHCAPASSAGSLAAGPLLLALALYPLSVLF", "assay": "TNAP enzyme inhibition by screening hits, dose response, selectivity assay for mouse IAP inhibitor project, biochemical, human TNAP, uHTS hits (AID 488906)", "format": "functional"}, "Caspase-6": {"target": "T4, Caspase-6 (Homo sapiens, UniProt P55212)", "T4 sequence (P55212 whole entry)": "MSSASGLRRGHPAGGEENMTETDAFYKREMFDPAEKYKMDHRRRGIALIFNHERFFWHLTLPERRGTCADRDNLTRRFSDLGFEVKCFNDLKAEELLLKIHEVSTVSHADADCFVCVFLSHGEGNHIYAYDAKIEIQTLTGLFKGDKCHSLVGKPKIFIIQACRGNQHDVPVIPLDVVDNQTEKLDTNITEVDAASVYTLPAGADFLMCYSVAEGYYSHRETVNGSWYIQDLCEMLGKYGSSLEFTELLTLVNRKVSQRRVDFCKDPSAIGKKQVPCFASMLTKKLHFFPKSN", "assay": "inhibition of CASP6 peptide cleavage – biochemical, VEID-R110 fluorescence, cherry-pick, dose response (AID 720632)"}, "[8]": {"target": "Intestinal-type alkaline phosphatase (Mus musculus, UniProt P24822)", "sequence (P24822 whole entry)": "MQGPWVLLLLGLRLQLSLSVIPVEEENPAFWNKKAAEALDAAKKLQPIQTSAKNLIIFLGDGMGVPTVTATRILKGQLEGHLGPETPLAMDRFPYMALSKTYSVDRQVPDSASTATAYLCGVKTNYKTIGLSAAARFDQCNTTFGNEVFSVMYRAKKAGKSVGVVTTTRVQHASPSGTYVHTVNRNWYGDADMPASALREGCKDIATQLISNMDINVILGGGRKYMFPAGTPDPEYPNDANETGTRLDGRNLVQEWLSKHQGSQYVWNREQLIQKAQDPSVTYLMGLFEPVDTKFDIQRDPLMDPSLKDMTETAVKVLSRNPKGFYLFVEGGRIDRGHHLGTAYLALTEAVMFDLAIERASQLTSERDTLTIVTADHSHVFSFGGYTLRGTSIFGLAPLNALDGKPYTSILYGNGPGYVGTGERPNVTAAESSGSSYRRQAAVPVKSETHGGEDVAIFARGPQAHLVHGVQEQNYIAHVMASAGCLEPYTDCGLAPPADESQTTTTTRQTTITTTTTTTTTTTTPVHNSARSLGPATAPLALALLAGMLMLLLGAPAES", "assay": "PubChem AID 488785", "format": "functional"}, "[9]": {"target": "DNA (cytosine-5)-methyltransferase 1 (Homo sapiens, UniProt P26358)", "sequence (P26358 whole entry)": "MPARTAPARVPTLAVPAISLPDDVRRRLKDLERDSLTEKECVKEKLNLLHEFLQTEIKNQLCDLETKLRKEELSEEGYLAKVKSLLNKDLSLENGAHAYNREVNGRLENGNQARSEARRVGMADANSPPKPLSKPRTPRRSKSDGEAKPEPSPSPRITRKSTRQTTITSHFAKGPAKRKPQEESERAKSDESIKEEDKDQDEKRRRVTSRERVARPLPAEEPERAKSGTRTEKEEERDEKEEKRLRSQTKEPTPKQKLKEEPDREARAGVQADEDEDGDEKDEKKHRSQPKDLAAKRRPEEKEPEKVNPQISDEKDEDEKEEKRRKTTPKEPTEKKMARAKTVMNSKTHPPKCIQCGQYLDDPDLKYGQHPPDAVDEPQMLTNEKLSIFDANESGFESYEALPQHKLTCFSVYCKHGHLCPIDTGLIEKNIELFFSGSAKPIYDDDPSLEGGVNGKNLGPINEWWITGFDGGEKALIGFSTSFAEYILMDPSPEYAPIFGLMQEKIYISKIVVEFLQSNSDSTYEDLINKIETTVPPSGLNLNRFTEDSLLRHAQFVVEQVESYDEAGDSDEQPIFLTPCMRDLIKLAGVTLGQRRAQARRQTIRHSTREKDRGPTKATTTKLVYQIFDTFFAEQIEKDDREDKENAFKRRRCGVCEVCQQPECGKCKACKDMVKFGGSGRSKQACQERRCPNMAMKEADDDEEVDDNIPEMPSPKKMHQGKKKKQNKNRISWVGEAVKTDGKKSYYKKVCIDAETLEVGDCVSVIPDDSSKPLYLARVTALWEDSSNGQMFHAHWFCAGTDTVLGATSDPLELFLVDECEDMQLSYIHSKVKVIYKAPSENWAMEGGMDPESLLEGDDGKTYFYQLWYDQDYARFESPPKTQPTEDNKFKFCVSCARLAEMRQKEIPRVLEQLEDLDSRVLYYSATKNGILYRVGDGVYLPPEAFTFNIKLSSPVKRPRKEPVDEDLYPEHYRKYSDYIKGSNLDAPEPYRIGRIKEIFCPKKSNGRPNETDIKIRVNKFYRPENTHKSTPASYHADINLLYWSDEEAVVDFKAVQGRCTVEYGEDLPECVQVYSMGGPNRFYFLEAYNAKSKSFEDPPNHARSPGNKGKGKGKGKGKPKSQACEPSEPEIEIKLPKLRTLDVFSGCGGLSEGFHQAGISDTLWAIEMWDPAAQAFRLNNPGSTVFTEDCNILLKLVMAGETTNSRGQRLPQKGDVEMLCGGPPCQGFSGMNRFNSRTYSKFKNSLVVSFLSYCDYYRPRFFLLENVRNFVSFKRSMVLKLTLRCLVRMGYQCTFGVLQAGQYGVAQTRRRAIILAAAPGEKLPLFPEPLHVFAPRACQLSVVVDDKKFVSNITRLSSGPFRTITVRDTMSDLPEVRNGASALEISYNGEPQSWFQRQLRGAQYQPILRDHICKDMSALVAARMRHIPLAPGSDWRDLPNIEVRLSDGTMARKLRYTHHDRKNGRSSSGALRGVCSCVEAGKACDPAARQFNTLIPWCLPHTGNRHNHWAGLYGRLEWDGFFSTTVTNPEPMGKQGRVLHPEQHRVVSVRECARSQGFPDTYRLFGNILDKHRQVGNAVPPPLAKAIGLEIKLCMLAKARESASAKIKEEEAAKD", "assay": "inhibition of DNA methylation by DNMT1 – biochemical, fluorescent molecular beacon, confirmation (AID 602386)", "format": "functional"}, "Prothrombin": {"target": "Prothrombin (Bos taurus, UniProt P00735)", "assay": "thrombin protease inhibitors – biochemical, fluorescence polarization, uHTS hits, dose response (AID 602369)", "format": "functional"}, "[10]": {"target": "72 kDa type IV collagenase (Homo sapiens, UniProt P08253)", "sequence (P08253 whole entry)": "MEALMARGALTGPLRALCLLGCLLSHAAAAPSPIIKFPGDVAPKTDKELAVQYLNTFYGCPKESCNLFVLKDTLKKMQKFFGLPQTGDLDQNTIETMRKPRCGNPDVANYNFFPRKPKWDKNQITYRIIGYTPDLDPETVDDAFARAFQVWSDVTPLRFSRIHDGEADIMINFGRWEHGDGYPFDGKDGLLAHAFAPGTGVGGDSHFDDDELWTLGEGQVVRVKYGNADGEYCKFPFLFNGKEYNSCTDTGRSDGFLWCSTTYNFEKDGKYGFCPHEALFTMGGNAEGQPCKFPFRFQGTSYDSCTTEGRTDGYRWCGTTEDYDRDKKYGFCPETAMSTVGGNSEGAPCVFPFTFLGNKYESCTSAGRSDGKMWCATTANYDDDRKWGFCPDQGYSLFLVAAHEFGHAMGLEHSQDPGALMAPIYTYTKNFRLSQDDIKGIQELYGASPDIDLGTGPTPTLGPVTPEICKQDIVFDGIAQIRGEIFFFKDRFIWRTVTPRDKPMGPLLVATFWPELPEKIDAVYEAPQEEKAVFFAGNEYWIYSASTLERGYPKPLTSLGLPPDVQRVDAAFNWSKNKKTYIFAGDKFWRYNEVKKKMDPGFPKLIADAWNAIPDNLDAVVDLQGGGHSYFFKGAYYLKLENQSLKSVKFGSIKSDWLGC", "assay": "Dose Response validation of uHTS RPN11 inhibitor hits using a MMP-2 Fluorescence assay.", "format": "functional"}, "[11]": {"target": "26S proteasome non-ATPase regulatory subunit 14 (Homo sapiens, UniProt O00487)", "sequence (O00487 whole entry)": "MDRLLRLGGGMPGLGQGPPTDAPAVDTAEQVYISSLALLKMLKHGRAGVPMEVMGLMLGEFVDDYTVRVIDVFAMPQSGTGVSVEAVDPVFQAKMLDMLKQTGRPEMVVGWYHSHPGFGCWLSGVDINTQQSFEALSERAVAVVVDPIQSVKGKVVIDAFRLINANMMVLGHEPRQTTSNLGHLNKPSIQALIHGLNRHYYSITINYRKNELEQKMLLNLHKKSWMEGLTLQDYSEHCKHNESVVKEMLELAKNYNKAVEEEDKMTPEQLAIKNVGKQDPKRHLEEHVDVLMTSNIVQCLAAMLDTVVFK", "assay": "inhibition of proteasome subunit RPN11 – biochemical, fluorescence polarization, uHTS hits, confirmation (AID 602368)", "format": "functional"}, "Protein skinhead-1": {"target": "T5, Protein skinhead-1 (Caenorhabditis elegans, UniProt P34707)", "T5 sequence (P34707 whole entry)": "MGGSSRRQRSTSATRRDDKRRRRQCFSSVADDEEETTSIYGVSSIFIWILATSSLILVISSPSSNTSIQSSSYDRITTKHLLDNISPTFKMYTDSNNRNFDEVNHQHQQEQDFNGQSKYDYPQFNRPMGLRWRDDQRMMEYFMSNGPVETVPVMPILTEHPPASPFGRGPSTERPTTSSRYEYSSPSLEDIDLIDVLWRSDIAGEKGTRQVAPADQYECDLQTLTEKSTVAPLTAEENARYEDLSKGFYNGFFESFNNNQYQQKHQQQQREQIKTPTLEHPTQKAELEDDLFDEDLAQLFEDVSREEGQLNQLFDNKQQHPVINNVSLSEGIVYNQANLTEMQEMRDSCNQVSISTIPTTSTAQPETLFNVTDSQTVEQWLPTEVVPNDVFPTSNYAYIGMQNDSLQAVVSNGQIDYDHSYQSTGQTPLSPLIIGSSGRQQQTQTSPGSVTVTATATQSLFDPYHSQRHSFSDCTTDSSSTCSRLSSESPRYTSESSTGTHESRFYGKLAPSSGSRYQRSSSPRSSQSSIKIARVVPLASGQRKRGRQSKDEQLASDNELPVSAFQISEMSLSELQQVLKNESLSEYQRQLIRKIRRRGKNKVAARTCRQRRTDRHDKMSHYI", "format": "functional"}, "[12]": {"target": "Voltage-dependent T-type calcium channel subunit alpha-1H (Homo sapiens, UniProt O95180)", "format": "functional"}, "CHO": {"test_system": "CHO", "assay": "CHO cell viability loss, potency – luminescence, cytotoxicity control for TLR9-MyD88 binding inhibitor project, dose response (AID 588339);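 also: CHO cells stably coexpressing TLR9 and MyD88 fusions from primary screen; compound exposure lasted 48 hours before viability readout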", "format": "functional, cell-based, hamster", "conditions": "Cricetulus griseus"}, "Beta Lactamase": {"target": "Beta Lactamase (Pseudomonas aeruginosa, UniProt Q932Y6)", "sequence (Q932Y6 whole entry)": "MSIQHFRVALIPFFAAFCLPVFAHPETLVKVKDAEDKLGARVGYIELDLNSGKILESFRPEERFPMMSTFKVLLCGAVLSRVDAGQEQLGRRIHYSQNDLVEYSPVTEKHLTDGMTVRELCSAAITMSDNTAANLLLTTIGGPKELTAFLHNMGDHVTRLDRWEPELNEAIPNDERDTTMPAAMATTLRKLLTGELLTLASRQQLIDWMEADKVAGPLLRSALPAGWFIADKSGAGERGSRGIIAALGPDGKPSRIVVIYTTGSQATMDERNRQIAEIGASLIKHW", "assay": "BLA reporter interference, concentration series – BLA reporter cells, FRET fluorescence, artefact control for TLR9-MyD88 binding inhibitor project, dose response (AID 588341)", "format": "cell-based"}, "Melanocortin receptor 4": {"target": "Melanocortin receptor 4 (Homo sapiens, UniProt P32245)", "format": "functional, cell-based"}, "Cytochrome P450 3A4": {"target": "Cytochrome P450 3A4 (Homo sapiens, UniProt P08684)", "sequence (P08684 whole entry)": "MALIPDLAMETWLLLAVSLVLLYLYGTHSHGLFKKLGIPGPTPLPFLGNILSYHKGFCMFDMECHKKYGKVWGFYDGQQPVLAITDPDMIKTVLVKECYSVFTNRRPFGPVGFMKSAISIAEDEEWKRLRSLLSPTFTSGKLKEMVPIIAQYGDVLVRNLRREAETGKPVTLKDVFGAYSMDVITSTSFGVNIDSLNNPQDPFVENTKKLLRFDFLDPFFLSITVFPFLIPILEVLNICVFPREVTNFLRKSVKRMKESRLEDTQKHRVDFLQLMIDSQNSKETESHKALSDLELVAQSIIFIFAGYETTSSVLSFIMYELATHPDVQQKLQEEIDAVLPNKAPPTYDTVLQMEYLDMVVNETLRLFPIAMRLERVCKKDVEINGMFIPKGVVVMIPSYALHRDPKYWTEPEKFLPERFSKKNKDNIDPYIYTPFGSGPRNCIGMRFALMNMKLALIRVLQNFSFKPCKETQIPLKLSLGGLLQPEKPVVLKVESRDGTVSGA"}, "[13]": {"target": "Ras and Rab interactor 1/Tyrosine-protein kinase ABL1 (Homo sapiens, UniProt P00519+Q13671)", "format": "functional"}, "[14]": {"target": "Mitochondrial peptide methionine sulfoxide reductase (Bos taurus, UniProt P54149)", "sequence (P54149 whole entry)": "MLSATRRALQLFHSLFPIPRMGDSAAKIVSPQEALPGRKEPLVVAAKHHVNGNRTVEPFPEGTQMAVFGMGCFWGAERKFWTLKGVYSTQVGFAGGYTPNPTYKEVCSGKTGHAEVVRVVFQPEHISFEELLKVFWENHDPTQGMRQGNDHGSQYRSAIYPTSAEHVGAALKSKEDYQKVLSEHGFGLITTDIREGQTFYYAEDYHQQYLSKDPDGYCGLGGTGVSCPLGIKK", "format": "functional"}}, "note": "Activity calls are given as the source filed them."}
{"smiles": "CON=C(C(=O)OC)c1ccccc1CO/N=C(\\C)c1cccc(C(F)(F)F)c1", "values": [{"measurement": "AC50", "setting": "[1]", "value": "63.1 µM (inconclusive)"}]}
{"smiles": "CC(=O)C(=NNc1cc(C)ccc1O)C(C)=O", "values": [{"measurement": "EC50", "setting": "[2]", "value": "> 99 µM (inactive)"}, {"measurement": "EC50", "setting": "[3]", "value": "> 99 µM (inactive)"}]}
{"smiles": "COc1cc(C(=O)Nc2ccc(S(=O)(=O)N3CCCCC3C)cc2)cc(OC)c1OC", "note": "(stereo not given)", "values": [{"measurement": "AC50", "setting": "[4]", "value": "19.8 µM (active)"}]}
{"smiles": "COc1ccc(C(=O)OCC(=O)Nc2ncc([N+](=O)[O-])s2)cc1OC", "values": [{"measurement": "AC50", "setting": "[5]", "value": "20.8 µM (active)"}, {"measurement": "IC50", "setting": "[6]", "value": "72.6 µM (active)"}, {"measurement": "IC50", "setting": "[7]", "value": "23.7 µM (active)"}, {"measurement": "AC50", "setting": "Caspase-6", "value": "4.75 µM (active)"}, {"measurement": "IC50", "setting": "[8]", "value": "8.79 µM (active)"}, {"measurement": "IC50", "setting": "[9]", "value": "4.45 µM (active)"}]}
{"smiles": "COc1cc(/C=C(\\C#N)C(=O)Nc2cc(C(F)(F)F)ccc2Cl)ccc1OCC(=O)Nc1cccc(C(F)(F)F)c1", "values": [{"measurement": "IC50", "setting": "Prothrombin", "value": "40.2 µM (active)"}, {"measurement": "IC50", "setting": "[10]", "value": "> 100 µM (inactive)"}, {"measurement": "IC50", "setting": "[11]", "value": "32.5 µM (active)"}]}
{"smiles": "CCOc1ccc(C(=O)N/N=C/c2cc(Cl)ccc2[N+](=O)[O-])cc1", "values": [{"measurement": "IC50", "setting": "Prothrombin", "value": "59.3 µM (active)"}, {"measurement": "IC50", "setting": "[10]", "value": "> 100 µM (inactive)"}, {"measurement": "IC50", "setting": "[11]", "value": "19.3 µM (active)"}]}
{"smiles": "CCCN1C(=O)/C(=C/c2ccc(N3CCCC3)c(C)c2)NC1=S", "values": [{"measurement": "IC50", "setting": "Protein skinhead-1", "value": "> 100 µM (inactive)"}, {"measurement": "EC50", "setting": "[12]", "value": "3.84 µM (active)"}, {"measurement": "IC50", "setting": "CHO", "value": "32.1 µM (inactive)"}, {"measurement": "IC50", "setting": "Beta Lactamase", "value": "6.66 µM (active)"}]}
{"smiles": "O=C(N/N=C/c1ccc(OCc2ccccc2)cc1)c1cccs1", "values": [{"measurement": "EC50", "setting": "Melanocortin receptor 4", "value": "> 89.2 µM (inactive)"}, {"measurement": "AC50", "setting": "Cytochrome P450 3A4", "value": "39.8 µM (inconclusive)"}]}
{"smiles": "CCOc1ccc2nc(N(CCN(C)C)C(=O)c3cc4ccccc4cc3OC)sc2c1", "values": [{"measurement": "IC50", "setting": "Protein skinhead-1", "value": "> 100 µM (inactive)"}, {"measurement": "IC50", "setting": "[13]", "value": "52 µM (inactive)"}]}
{"smiles": "CN(/N=C/C=C/c1ccccc1)c1cc(=O)n(C)c(=O)[nH]1", "values": [{"measurement": "IC50", "setting": "[14]", "value": "155 µM (inactive)"}]}
